Here are results for one molecule from patent US6696495B2, “Treatment of disorders secondary to organic impairments” (Snowden Pharmaceuticals, LLC, priority 1998, dated 2004).

One data set has as its system Cerebral Palsy. The experiment in a line: Case history 26. It counts as in vivo, human. To be noted: sibutramine 15 mg once a day; person two. The text has this:
26. The Symptoms Due to Cerebral Palsy
person two had suffered from Cerebral Palsy since birth. Their whole life they had little control of their right arm and hand, and they could not keep their arm straight and down by their side except for short periods of time and using the utmost concentration to do so. Most often they kept their arm in an upright position with their hand near or above their shoulder and their elbow bent. They had no practical use from the arm other than to hold something against their chest. Their hand was also rigid and kept in a loose fist configuration. Fine motor movements of the fingers were impossible for them. […] They had gained control of the right arm and their hand. They are able to hold their hand down by their side for longer periods of time and less concentration required to do so. For the first time in their life they were able to make controlled movements and raise their arm and hand above their head.

Another data set concerns Sexual Function and ADD. The experiment in a line: Case history 4, Sibutramine Patient No. 109. It counts as in vivo, human.
Data set [1] deals with Sick Building Syndrome (SBS). The experiment in a line: Case history 20. To be noted: sibutramine 5 mg. t.i.d. Person. It counts as in vivo, human. The text has this:
20. Sick Building Syndrome (SBS)
This person began to note an increasing fatigue, poor concentration, rash, and wheezing which they related to exposure to unknown foreigns in the large building in which they worked. They also noted that more than 40 other employees had similar symptoms. […] They were then forced to leave their job in this building with a gradual relief of all symptoms over the next several weeks.

Data set [2] deals with ADHD Refractory to Other Treatments. It counts as in vivo, human. To be noted: sibutramine 10 mg every morning by mouth; person. Here is the method: 16. ADHD Refractory to Other Treatments (Problem No. 6) Sibutramine Patient No. 16
The amphetamines made their nervous, jittery, and unable to sleep. […] They were started on sibutramine 10 mg every morning by mouth. […] After the first month, their dose was changed to 5 mg three times daily due to a five hour duration of effects.

The subject of data set [3] is Tourette's Disease Tics, Violence, and ADHD. The experiment in a line: Case history 8, Sibutramine Patient No. 47. It counts as in vivo, human.
Data set [4] relates to Torticollis, Lingual Dystonia and Dyskinesia. The experiment in a line: Case history 23. It counts as in vivo, human.
For another data set, the system named is Retinitis Pigmentosa. The experiment in a line: Case history 13. It counts as in vivo, human. The text has this:
person one presented with a 40 year history of gradual loss of vision due to RP. For the past 10 years they had been almost completely blind except for well-lit large shapes visible to their right eye. They have been prone to falls with head injury and had developed a focal seizure disorder which had been also associated with “visions”, stammering, and confusion. Multiple treatments had been tried unsuccessfully by other physicians, and they were then referred to me.
One problem was that the effects faded after 4-6 hours and required multiple dosing. […] sleep was aided as well because of the relief from the frightening visual apparitions. The relief from stammering was also unexpected.

Data set [5] has as its system Violence and Self-Laceration. The experiment in a line: Case history 2, Sibutramine Patient No. 3. It counts as in vivo, human. The method, then: 2. Violence and Self-Laceration (Problem No. 1) Sibutramine Patient No. 3
They were started on sibutramine 10 mg orally every morning for their violence, self-abuse and obesity.

Data set [6] has as its system Severe ADHD Refractory to All Other Medications With Executive (Frontal Lobe) Problems. The source says:
A person was seen first for a life-long history of severe hyperactivity, distractibility, disorganization, poor memory of studied material, very poor concentration, and school failure despite a high IQ. There was no known history of head injury, other neurological disease, nor metabolic disease.

Setting [7] is: sibutramine 15 mg three times a day.

Each structure is given as a SMILES string.

Consider `CC(C)CC(N(C)C)C1(c2ccc(Cl)cc2)CCC1.Cl` (stereo not shown) [sibutramine, N,N-dimethyl-1-[1-(4-chlorophenyl)cyclobutyl]-3-methylbutylamine hydrochloride], for which, in the data set with Cerebral Palsy, the “symptoms due to Cerebral Palsy, control of right arm and hand” value was “their symptoms due to Cerebral Palsy were relieved”. For the same molecule, in the data set with Sexual Function and ADD (sibutramine 5 mg three times daily with continuing valproic acid), the “concentration and fatigue problems” value is “no longer had the concentration and fatigue problems”. Moreover, the “sexual interest and ability” value with Sexual Function and ADD (sibutramine 5 mg three times daily, person) is “immediately noted a new-found interest and ability to engage in sex”. Moreover, the “cognitive, fatigue and allergic symptoms” value in data set [1] is “rapid relief of the cognitive and fatigue symptoms, but no relief from the allergic symptomatology”. Moreover, in [2], the “effect on ADHD” value was “a calming and an alerting effect”. Further, the “tics, aggressive outbursts, concentration” value in data set [3] (human, in vivo) is “rapidly relieved their tics, their aggressive outbursts, and helped their concentration”. In addition, in data set [3] (sibutramine 10 mg every morning), the wear-off of effects result is listed as “wore off quickly after noon with a rapid return of all symptoms”. The “tics, violence, concentration problems” value in data set [3] (sibutramine 10 mg three times daily) was “loss of verbal and motor tics, violence, and concentration problems”. Moreover, the “symptoms with continued dosing” value in data set [4] (15 mg sibutramine every six hours) was “prolonged and sustained relief of their symptoms”. Also, in [4] (sibutramine 15), the pain entry was “their pain subsided”; the “tremors, mouth opening, arm movement” value was “their tremors considerably slowed, their mouth was no. longer pulling open as dramatically and their arm was not moving noticeably”. The time to response in data set [4] (sibutramine 15, person) was no more than 45 min. For the same molecule, in the data set with Retinitis Pigmentosa (sibutramine 5 mgs.), the “time after which effects faded” value lay in the range of 4 to 6 h. Also, the “visual apparitions (“visions”)” value in the data set on Retinitis Pigmentosa (sibutramine 5 mgs. t.i.d.) is reported as “lost the “visions” which had upset them so”. Besides, in the data set on Retinitis Pigmentosa (sibutramine 5 mgs. t.i.d. Person one), the “organization, alertness, stammering, vision” value is “better organization and alertness, decreased stammering, but also better vision by visual testing”. Also, the “energy, seizures, violence and self-abuse” value in data set [5] (sibutramine 10 mg orally every) is “gained new energy, had fewer seizures, and was no longer violent or self-abusive”. In addition, the time to response result in data set [5] (sibutramine 10 mg orally every morning) is “less than a week”. Besides, in [5] (single morning dose 10 mg), the “wear-off of effects after administration” value lay within 5 to 6 h. Besides, the “maximum duration of a single dose effect” value in data set [6] (rapid catabolism) was in the range of 4 to 5 h. In addition, in data set [6] (setting [7]), the “ability to plan and execute (executive function)” value is “marked improvement in their ability to form appropriate, organized plans and execute them promptly without procrastination or distraction”; the complaints result is on record as “being “too calm” with a loss of the exciting high-risk behavior of the past”. Also, the “calm, concentration, retention of information” value in data set [6] (sibutramine 15 mg three times a day, person) is “the first medication to calm them and permit careful, quiet concentration and retention of information”.
